Test results: US9556132B2, “Tetrazole derivatives and their use as potassium channel modulators” (SANIONA A/S, priority 2012, dated 2017)

Target: human IK (Homo sapiens (Human), UniProt O15554)
Experiment: Inhibition of IK channels expressed in HEK293 cells, thallium (I) sensitive FLIPR assay
Format: cell-based
Details: HEK293 cells over-expressing human IK; Tl+-sensitive BTC fluorescence (FLIPR); inhibition of activity induced by Ca2+-ionophore A23187
Method: Following experiment determines the ability of a test compound to inhibit the activity of IK channels heterologously expressed in human HEK293 cells, and was used as the primary screen. The ability is determined as per cent inhibition of the activity induced by addition of the Ca^2+-ionophore A23187 (considered a maximum response). The activity is determined using a standard thallium (I) sensitive assay, e.g. using a fluorometric method in a Fluorescent Image Plate Reader (FLIPR) as described below in more detail.
Full concentration/response curves are generated and IC50 values are calculated based on the degree of inhibition of the maximum response. IC50 values (Inhibitory Concentration) represent the concentration of the test substance at which 50% of the maximum channel activity is inhibited.
Human HEK293 cells over-expressing human IK are grown in culture medium (DMEM supplemented with 10% foetal bovine serum), in polystyrene culture flasks ([…]) in a humidified atmosphere of 5% CO2 in air, at 37° C. Cell confluence should be 80-90% on day of plating. Cells are rinsed with 4 mL of PBS (phosphate buffered saline) and incubated 2 min with 1 mL of Trypsin-EDTA. After addition of 25 mL of culture medium cells are re-suspended by trituration with a 25 mL pipette.
The cells are seeded at a density of ˜3×10^6 cells/mL (25 μL/well) in black-walled, clear bottom, 384-well plates pre-treated with 0.01 g/L poly-D-lysin (20 μL/well for ≧30 min). Plated cells were allowed to proliferate for 24 h before loading with dye.
BTC-AM ([…], Invitrogen) is added 25.5 μl DMSO. The BTC-AM stock solution (2 mM) is diluted to a final concentration of 2 μM in […] assay buffer (in mM: 140 Na^+-gluconate, 2.5 K^+-gluconate, 6 Ca2^+-gluconate, 1 Mg^2+ gluconate, 5 glucose, 10 HEPES, pH 7.3) containing 2 μM ouabain, 2 mM amaranth and 1 mM tartrazine.
The culture medium is aspirated from the wells, and 25 μl of the BTC-AM loading solution are added to each well. The cells are incubated at 37° C. for 60 min.
After the loading period, the Tl^+-sensitive BTC fluorescence signal is measured over time using a FLIPR.
• Temperature: Room temp. • First addition: 12 μl test or control compound after 15 sec at a rate of 30 μL/sec and starting height of 20 μL • Second addition: 12 μL stimulus buffer (Cl^− free assay buffer supplemented with 1 mM Tl2SO4, 5 μM A23187 as well as the quenchers amaranth (2 mM) and tartrazine (1 mM)) is added after an additional 3 minutes at a rate of 30 μL/sec and starting height of 30 μL • Reading intervals: First sequence—3 sec×5, 2 sec×24 and 5 sec×25 • Second sequence—1 sec×5, 2 sec×24 and 5 sec×36
Addition plates (compound plate and stimulus plate) are placed in positions 2 and 3, respectively. Cell plates are placed in position 1 and run using the “IK blocker (EtOH wash, two additions)” program. FLIPR will then take the appropriate measurements in accordance with the interval settings above. Fluorescence obtained after stimulation is corrected for the mean basal fluorescence (in Cl^− free assay buffer).
Full concentration/response curves are generated and IC50 values (“Inhibitory Concentration”, i.e. the concentration of the test substance at which 50% of the maximum channel activity is inhibited) are calculated. The responses are calculated based on peak values.

| Structure (SMILES) | IC50 [nM] |
| --- | --- |
| COc1ccccc1-c1ccccc1-c1nnnn1-c1ccccc1OC [Compound 51, 1-(2-Methoxyphenyl)-5-[2-(2-methoxyphenyl)phenyl]-1H-1,2,3,4-tetrazole] | 1200 |
| N#Cc1ccccc1-n1nnnc1-c1ccccc1-c1ccccc1OC(F)F [Compound 62, 2-(5-{2-[2-(Difluoromethoxy)phenyl]phenyl}-1H-1,2,3,4-tetrazol-1-yl)benzonitrile] | 210 |
| OCc1ccccc1-c1ccccc1-c1nnnn1-c1ccccc1F [Compound 28, (2-{2-[1-(2-Fluorophenyl)-1H-1,2,3,4-tetrazol-5-yl]phenyl}phenyl)methanol] | 770 |
| FCOc1ccccc1-c1ccccc1-c1nnnn1-c1ccccc1F [Compound 12, 5-{2-[2-(Fluoromethoxy)phenyl]phenyl}-1-(2-fluorophenyl)-1H-1,2,3,4-tetrazole] | 300 |
| O=Cc1ccccc1-c1ccccc1-c1nnnn1-c1ccccc1F [Compound 21, 2-{2-[1-(2-Fluorophenyl)-1H-1,2,3,4-tetrazol-5-yl]phenyl}benzaldehyde] | 550 |
| Fc1ccccc1-n1nnnc1-c1ccccc1-c1ccccc1Cl [Compound 24, 5-[2-(2-Chlorophenyl)phenyl]-1-(2-fluorophenyl)-1H-1,2,3,4-tetrazole] | 360 |
